As usually defined, the IC50 is the concentration that gives 50% inhibition. The low end stands for inhibition by little substance, the high end for a need for much substance.

The target in assay [1] is T1, human CYP11B1 (Homo sapiens, UniProt P15538).
T1 construct: expressed in transfected cells
T1 sequence (P15538 25-503): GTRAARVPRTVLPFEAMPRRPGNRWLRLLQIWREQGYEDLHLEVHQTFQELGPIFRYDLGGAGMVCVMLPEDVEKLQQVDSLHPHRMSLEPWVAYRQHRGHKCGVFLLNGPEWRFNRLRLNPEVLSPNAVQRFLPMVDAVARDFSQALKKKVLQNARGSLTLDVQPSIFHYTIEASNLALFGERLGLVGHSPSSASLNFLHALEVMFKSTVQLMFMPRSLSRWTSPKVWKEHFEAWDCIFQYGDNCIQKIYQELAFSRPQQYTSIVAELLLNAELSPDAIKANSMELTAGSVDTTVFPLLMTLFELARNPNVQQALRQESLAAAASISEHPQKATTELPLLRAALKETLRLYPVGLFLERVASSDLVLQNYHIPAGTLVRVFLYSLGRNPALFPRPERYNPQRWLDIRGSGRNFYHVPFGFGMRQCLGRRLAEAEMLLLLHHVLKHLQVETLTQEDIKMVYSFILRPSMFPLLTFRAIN
Briefly: Inhibition of hCYP11B1 in transfected V79 cells. Format: cell-based. Conditions: hamster V79 cells expressing human CYP11B1; substrate 11-deoxycortisol 200 nM. An outline of the steps: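 Reactions started with 200 nM 11-deoxycortisol, ran for 30 min and were stopped with ethyl acetate, after a 2 h compound preincubation. The host was stably transfected V79 hamster cells carrying human CYP11B1 plus rat P450 reductase. Percent inhibition, from LC-MS/MS or HPLC (260 nm) quantitation of substrate and product, gave the IC50.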

Assay [2] deals with T2, human CYP11B2 (Homo sapiens, UniProt P19099).
T2 construct: expressed in transfected cells
T2 sequence (P19099 25-503): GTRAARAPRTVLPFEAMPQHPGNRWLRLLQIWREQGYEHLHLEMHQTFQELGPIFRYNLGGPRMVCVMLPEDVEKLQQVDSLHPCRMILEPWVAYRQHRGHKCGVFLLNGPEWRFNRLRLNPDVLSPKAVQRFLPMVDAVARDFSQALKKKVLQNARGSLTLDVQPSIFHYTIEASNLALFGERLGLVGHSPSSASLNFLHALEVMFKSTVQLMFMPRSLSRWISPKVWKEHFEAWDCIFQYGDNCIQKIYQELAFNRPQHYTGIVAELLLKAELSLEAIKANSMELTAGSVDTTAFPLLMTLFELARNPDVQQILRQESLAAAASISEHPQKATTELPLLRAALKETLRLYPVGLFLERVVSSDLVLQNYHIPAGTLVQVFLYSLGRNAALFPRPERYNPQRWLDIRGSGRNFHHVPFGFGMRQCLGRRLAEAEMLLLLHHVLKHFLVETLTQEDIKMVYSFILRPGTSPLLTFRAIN
The experiment in a line: Inhibition of hCYP11B2 in transfected V79 cells. Format: cell-based. The following applies: hamster V79 cells expressing human CYP11B2; substrate 11-deoxycorticosterone 200 nM. The essentials:
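The substrate (200 nM, 30 min) was added after a 2 hour compound pre-incubation in lentivirus-transduced V79 cells stably expressing human CYP11B2 plus rat NADPH-P450 reductase.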

In the case of `N#Cc1ccc(-c2cncc3c2OCCN3S(=O)(=O)c2cccc(C(F)(F)F)c2)cc1` [O12, 4-(4-((3-(Trifluoromethyl)phenyl)sulfonyl)-3,4-dihydro-2H-pyrido[4,3-b][1,4]oxazin-8-yl)benzonitrile], the figures for the IC50 in assay [1] and in assay [2] were 0.74 nM and 0.18 nM, respectively.
The matching figures for `N#Cc1ccc(-c2cncc3c2OCCN3S(=O)(=O)c2cccnc2)cc1` [O13, 4-(4-(Pyridin-3-ylsulfonyl)-3,4-dihydro-2H-pyrido[4,3-b][1,4]oxazin-8-yl)benzonitrile]: 0.31 nM and 0.48 nM.
For `CS(=O)(=O)N1CCOc2c(-c3ccc(C#N)cc3)cncc21` [O14, 4-(4-(Methylsulfonyl)-3,4-dihydro-2H-pyrido[4,3-b][1,4]oxazin-8-yl)benzonitrile] the same measures were 0.41 nM and 0.2 nM.
Take `N#Cc1ccc(-c2cncc3c2OCCN3S(=O)(=O)c2cccc3cccnc23)cc1` [O15, 4-(4-(Quinolin-8-ylsulfonyl)-3,4-dihydro-2H-pyrido[4,3-b][1,4]oxazin-8-yl)benzonitrile]: the IC50 in assay [1] was 1.46 nM; in assay [2], 0.25 nM.
For `N#Cc1ccc(-c2cncc3c2OCCN3S(=O)(=O)c2cccs2)cc1` [O16, 4-(4-(Thiophen-2-ylsulfonyl)-3,4-dihydro-2H-pyrido[4,3-b][1,4]oxazin-8-yl)benzonitrile] the same measures were 0.04 nM and 0.56 nM.
For the compound `N#Cc1ccc(-c2cncc3c2OCCN3S(=O)(=O)c2cccc3ccccc23)cc1` [O17, 4-(4-(Naphthalen-1-ylsulfonyl)-3,4-dihydro-2H-pyrido[4,3-b][1,4]oxazin-8-yl)benzonitrile], the IC50 in assay [1] was determined as 6.5 nM; in assay [2], 0.39 nM.
The matching figures for `N#Cc1ccc(-c2cncc3c2OCCN3S(=O)(=O)c2ccc3ccccc3c2)cc1` [O18, 4-(4-(Naphthalen-2-ylsulfonyl)-3,4-dihydro-2H-pyrido[4,3-b][1,4]oxazin-8-yl)benzonitrile]: 0.91 nM and 0.2 nM.
For `N#Cc1ccc(-c2cncc3c2OCCN3C(=O)c2ccc(F)cc2)cc1` [O19, 4-(4-(4-Fluorobenzoyl)-3,4-dihydro-2H-pyrido[4,3-b][1,4]oxazin-8-yl)benzonitrile] the same measures were 1350 nM and 23.1 nM.
For `N#Cc1ccc(-c2cncc3c2OCCN3C(=O)c2cccc(F)c2)cc1` [O20, 4-(4-(3-Fluorobenzoyl)-3,4-dihydro-2H-pyrido[4,3-b][1,4]oxazin-8-yl)benzonitrile] the same measures were 1730 nM and 25.2 nM.
In the case of `N#Cc1ccc(-c2cncc3c2OCCN3C(=O)c2ccccc2F)cc1` [O21, 4-(4-(2-Fluorobenzoyl)-3,4-dihydro-2H-pyrido[4,3-b][1,4]oxazin-8-yl)benzonitrile], the IC50 in assay [1] worked out at 1130 nM; in assay [2] it was 26.1 nM.
For the compound `COc1ccc(C(=O)N2CCOc3c(-c4ccc(C#N)cc4)cncc32)cc1` [O22, 4-(4-(4-Methoxybenzoyl)-3,4-dihydro-2H-pyrido[4,3-b][1,4]oxazin-8-yl)benzonitrile], the results for the IC50 in assay [1] and in assay [2] were 3400 nM and 108 nM, respectively.
For `COc1cccc(C(=O)N2CCOc3c(-c4ccc(C#N)cc4)cncc32)c1` [O23, 4-(4-(3-Methoxybenzoyl)-3,4-dihydro-2H-pyrido[4,3-b][1,4]oxazin-8-yl)benzonitrile] the same measures were 516 nM and 29.5 nM.
The matching figures for `N#Cc1ccc(-c2cncc3c2OCCN3C(=O)c2ccc(C(F)(F)F)cc2)cc1` [O24, 4-(4-(4-(Trifluoromethyl)benzoyl)-3,4-dihydro-2H-pyrido[4,3-b][1,4]oxazin-8-yl)benzonitrile]: 85.6 nM and 19.7 nM.
In the case of `N#Cc1ccc(-c2cncc3c2OCCN3C(=O)c2cccc(C(F)(F)F)c2)cc1` [O25, 4-(4-(3-(Trifluoromethyl)benzoyl)-3,4-dihydro-2H-pyrido[4,3-b][1,4]oxazin-8-yl)benzonitrile], the IC50 in assay [1] amounted to 476 nM; in assay [2] it was 18.1 nM.
For `N#Cc1ccc(-c2cncc3c2OCCN3C(=O)c2ccc([N+](=O)[O-])cc2)cc1` [O26, 4-(4-(4-Nitrobenzoyl)-3,4-dihydro-2H-pyrido[4,3-b][1,4]oxazin-8-yl)benzonitrile] the same measures were 1450 nM and 22.4 nM.
As for `N#Cc1ccc(-c2cncc3c2OCCN3C(=O)c2cccc([N+](=O)[O-])c2)cc1` [O27, 4-(4-(3-Nitrobenzoyl)-3,4-dihydro-2H-pyrido[4,3-b][1,4]oxazin-8-yl)benzonitrile], the figures for the IC50 in assay [1] and in assay [2] were 1200 nM and 23.6 nM, respectively.
For `N#Cc1ccc(-c2cncc3c2OCCN3C(=O)c2ccc(Cl)cc2)cc1` [O28, 4-(4-(4-Chlorobenzoyl)-3,4-dihydro-2H-pyrido[4,3-b][1,4]oxazin-8-yl)benzonitrile] the same measures were 277 nM and 20.9 nM.
As to `N#Cc1ccc(-c2cncc3c2OCCN3C(=O)c2cccc(Cl)c2)cc1` [O29, 4-(4-(3-Chlorobenzoyl)-3,4-dihydro-2H-pyrido[4,3-b][1,4]oxazin-8-yl)benzonitrile], the IC50 is 1710 nM in assay [1] and 5.9 nM in assay [2].
For `N#Cc1ccc(-c2cncc3c2OCCN3C(=O)c2cccnc2)cc1` [O30, 4-(4-Nicotinoyl-3,4-dihydro-2H-pyrido[4,3-b][1,4]oxazin-8-yl)benzonitrile] the same measures were 4690 nM and 110 nM.
For `N#Cc1ccc(-c2cncc3c2OCCN3C(=O)c2ccco2)cc1` [O31, 4-(4-(Furan-2-carbonyl)-3,4-dihydro-2H-pyrido[4,3-b][1,4]oxazin-8-yl)benzonitrile] the same measures were 187 nM and 2.8 nM.
For `N#CCC(=O)N1CCOc2c(-c3ccc(C#N)cc3)cncc21` [O32, 4-(4-(2-Cyanoacetyl)-3,4-dihydro-2H-pyrido[4,3-b][1,4]oxazin-8-yl)benzonitrile] the same measures were 785 nM and 18 nM.
Consider `N#Cc1ccc(-c2cncc3c2OCCN3C(=O)CCl)cc1` [O33, 4-(4-(2-Chloroacetyl)-3,4-dihydro-2H-pyrido[4,3-b][1,4]oxazin-8-yl)benzonitrile], for which the IC50 came to 1270 nM in assay [1] and 18.3 nM in assay [2].
For `N#Cc1ccc(-c2cncc3c2OCCN3C(=O)CBr)cc1` [O34, 4-(4-(2-Bromoacetyl)-3,4-dihydro-2H-pyrido[4,3-b][1,4]oxazin-8-yl)benzonitrile] the same measures were 546 nM and 17.4 nM.
As to `N#Cc1ccc(-c2cncc3c2OCCN3C(=O)C(F)(F)F)cc1` [O35, 4-(4-(2,2,2-Trifluoroacetyl)-3,4-dihydro-2H-pyrido[4,3-b][1,4]oxazin-8-yl)benzonitrile], the concentration for half-maximal inhibition (IC50) in assay [1] was 101 nM; in assay [2], 0.9 nM.
For `N#Cc1ccc(-c2cncc3c2OCCN3C(=O)Cc2ccc(F)cc2)cc1` [O36, 4-(4-(2-(4-Fluorophenyl)acetyl)-3,4-dihydro-2H-pyrido[4,3-b][1,4]oxazin-8-yl)benzonitrile] the same measures were 262 nM and 1.8 nM.
The matching figures for `N#Cc1ccc(-c2cncc3c2OCCN3C(=O)Cc2cccc(F)c2)cc1` [O37, 4-(4-(2-(3-Fluorophenyl)acetyl)-3,4-dihydro-2H-pyrido[4,3-b][1,4]oxazin-8-yl)benzonitrile]: 86 nM and 1.4 nM.

The record behind these values is patent US20260092074A1, “Annelated Pyridines as Steroidogenesis Inhibitors, Preparation Method and Use Thereof” (Guangzhou Vinnocent Pharmaceutical Limited, priority 2022, published 2026).
